Experimental data reported in the Kinase Knowledgebase extract (Sharma et al. 2016).

Target: MAPK14 (human) (UniProt Q16539)
Assay: Inhibition of MAPK14 Kinase Activity

MAPK14 (human), sequence (Q16539 whole entry, looked up): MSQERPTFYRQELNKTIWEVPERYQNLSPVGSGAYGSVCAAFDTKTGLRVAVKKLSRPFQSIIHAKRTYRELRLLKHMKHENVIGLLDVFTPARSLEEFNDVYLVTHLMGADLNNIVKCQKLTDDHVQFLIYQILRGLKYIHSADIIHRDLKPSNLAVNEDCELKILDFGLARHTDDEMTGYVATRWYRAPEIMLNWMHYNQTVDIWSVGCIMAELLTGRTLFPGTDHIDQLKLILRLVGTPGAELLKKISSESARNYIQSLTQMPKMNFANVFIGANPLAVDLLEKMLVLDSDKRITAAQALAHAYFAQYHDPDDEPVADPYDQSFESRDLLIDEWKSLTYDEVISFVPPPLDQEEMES

Compound	IC50 [µM]
O=C1CCC(Cc2ccc3ccccc3c2)CN1C1C(Cl)CCCC1Cl (stereo unspecified)	≤ 10
CNc1cc(Cl)c(N2CC(Cc3ccc(F)cc3F)CCC2=O)c(Cl)n1 (stereo unspecified)	≤ 10
CNc1ccc(Cl)c(N2CC(Cc3ccc(F)cc3F)OCC2=O)c1Cl (stereo unspecified)	≤ 10
O=C(CCCCO)Nc1cc(Cl)c(N2CC(Cc3ccc(F)cc3F)CCC2=O)c(Cl)c1 (stereo unspecified)	≤ 10
O=C1CCC(Cc2ccc(F)cc2F)CN1C1C(Cl)CC(CO)CC1Cl (stereo unspecified)	≤ 10
CC(=O)Nc1ccc(Cl)c(N2CC(Sc3ccc(F)cc3F)CCC2=O)c1Cl (stereo unspecified)	≤ 10
CC(=O)NC1CC(Cl)C(N2CC(Cc3ccc(F)cc3F)CCC2=O)C(Cl)C1 (stereo unspecified)	≤ 10
O=C1CCC(Oc2ccc(Cl)cc2)CN1c1c(Cl)csc1Cl (stereo unspecified)	≤ 10
O=C1CCC(Cc2ccc(F)cc2F)CN1c1cc(NCCO)ccc1Cl (stereo unspecified)	≤ 10
Cc1cccc(C)c1N1CC(Cc2ccccc2O)CCC1=O (stereo unspecified)	≤ 10
CN(C)Cc1cc(Cl)c(N2CC(Cc3ccc(F)cc3F)CCC2=O)c(Cl)c1 (stereo unspecified)	≤ 10
CN(C)c1cc(Cl)c(N2CC(Cc3ccc(F)cc3F)CCC2=O)c(Cl)c1 (stereo unspecified)	≤ 10
Cc1cc(/C=C/C(=O)O)cc(C)c1N1CC(Cc2ccc(F)cc2F)CCC1=O (stereo unspecified)	≤ 10
Cc1cc(CN)cc(C)c1N1CC(Cc2ccc(F)cc2F)CCC1=O (stereo unspecified)	≤ 10
COc1ccc(OC2CCC(=O)N(c3c(Cl)cccc3Cl)C2)cc1 (stereo unspecified)	≤ 10
Cn1nc(C(C)(C)C)cc1NC(=O)NCc1ccccc1CC1CCC(=O)N(c2c(Cl)cccc2Cl)C1 (stereo unspecified)	≤ 10
O=C1CCC(Cc2ccc(F)cc2F)CN1c1c(Cl)cnc(CO)c1Cl (stereo unspecified)	≤ 10
O=C(NCc1ccccc1CC1CCC(=O)N(c2c(Cl)cccc2Cl)C1)Nc1cccc(C(F)(F)F)c1 (stereo unspecified)	≤ 10
O=C(Cc1ccccc1)Nc1ccc(Cl)c(N2CC(Oc3ccc(F)cc3F)CCC2=O)c1Cl (stereo unspecified)	≤ 10
COc1ccccc1CC1CN(c2c(Cl)cccc2Cl)C(=O)CS1 (stereo unspecified)	≤ 10
Cc1ccccc1CC1CNC(=O)N(c2c(Cl)cccc2Cl)C1 (stereo unspecified)	≤ 10
O=C1CCC(Cc2ccc(F)cc2F)CN1c1c(Cl)cc(NC2CCNCC2)cc1Cl (stereo unspecified)	≤ 10
C[C@H]1C[C@@H](Cc2ccc(F)cc2F)CN(c2c(Cl)cccc2Cl)C1=O	≤ 10

Compound	IC50 [µM]
CS(=O)(=O)NCCNc1cc(Cl)c(N2CC(Cc3ccc(F)cc3F)CCC2=O)c(Cl)c1 (stereo unspecified)	≤ 10
Nc1ncc(Cl)c(N2CC(Cc3ccc(F)cc3F)CCC2=O)c1Cl (stereo unspecified)	≤ 10
NC1CCC(Cl)C(N2CC(Cc3ccc(F)cc3F)CCC2=O)C1Cl (stereo unspecified)	≤ 10
Nc1cnc(Cl)c(N2CC(Sc3ccc(F)cc3F)CCC2=O)c1Cl (stereo unspecified)	≤ 10
O=C(Cc1ccccc1)NC1CCC(Cl)C(N2CC(Sc3ccc(F)cc3F)CCC2=O)C1Cl (stereo unspecified)	≤ 10
CC(=O)Nc1cc(Cl)c(N2CC(Cc3ccc(F)cc3F)CNC2=O)c(Cl)c1 (stereo unspecified)	≤ 10
O=C1NCC(Cc2ccc(F)cc2F)CN1c1c(Cl)ccc(O)c1Cl (stereo unspecified)	≤ 10
NC1CC(Cl)C(N2CC(Cc3ccc(F)cc3F)CCC2=O)C(Cl)C1 (stereo unspecified)	≤ 10
Cc1ccc(CC2CN(C)C(=O)N(c3c(Cl)cccc3Cl)C2)c(C)c1 (stereo unspecified)	≤ 10
Cn1nc(C(C)(C)C)cc1NC(=O)CCc1ccccc1CC1CCC(=O)N(c2c(Cl)cccc2Cl)C1 (stereo unspecified)	≤ 10
O=C1CCC(Cc2ccc(F)cc2)CN1c1c(Cl)cncc1Cl (stereo unspecified)	≤ 10
CN1CC(Cc2ccccc2F)CN(c2c(Cl)cccc2Cl)C1=O (stereo unspecified)	≤ 10
CCOC(=O)CNc1ccc(Cl)c(N2CC(Cc3ccc(F)cc3F)CCC2=O)c1 (stereo unspecified)	≤ 10
C[C@@H]1C[C@H](Cc2ccc(F)cc2F)CN(c2c(Cl)cc(N)cc2Cl)C1=O	≤ 10
O=C1NCC(Cc2ccccc2F)CN1c1c(Cl)cccc1Cl (stereo unspecified)	≤ 10
Cc1cc(C#CCN(C)C)cc(C)c1N1C[C@@H](Cc2ccc(F)cc2F)C[C@@H](C)C1=O	≤ 10
O=C1CCC(Cc2ccc(C(F)(F)F)cc2)CN1c1c(Cl)cccc1Cl (stereo unspecified)	≤ 10
O=C1CCC(Cc2ccc(F)cc2F)CN1C1C(Cl)CC(O)CC1Cl (stereo unspecified)	≤ 10
NC(=O)NCCNc1cc(Cl)c(N2CC(Cc3ccc(F)cc3F)CCC2=O)c(Cl)c1 (stereo unspecified)	≤ 10
O=C1CCC(Oc2ccc(Cl)cc2Cl)CN1c1c(Cl)cccc1Cl (stereo unspecified)	≤ 10
COC(=O)/C=C/c1cc(Cl)c(N2CC(Cc3ccc(F)cc3F)CCC2=O)c(Cl)c1 (stereo unspecified)	≤ 10
O=C1CCC(Cc2ccc(F)cc2F)CN1c1ccccc1CCO (stereo unspecified)	≤ 10
O=C1CC[C@@H](Cc2ccc(F)cc2F)CN1c1c(Cl)cccc1Cl	≤ 10

Compound	IC50 [µM]
CCNC(=O)Nc1cc(Cl)c(N2CC(Cc3ccc(F)cc3F)CCC2=O)c(Cl)c1 (stereo unspecified)	≤ 10
COc1ccccc1SC1CCC(=O)N(c2c(Cl)cccc2Cl)C1 (stereo unspecified)	≤ 10
O=C1CCC(Cc2ccccc2Cl)CN1c1c(Cl)cccc1Cl (stereo unspecified)	≤ 10
Cc1ccc(CC2CCC(=O)N(c3c(Cl)cccc3Cl)C2)c(C)c1 (stereo unspecified)	≤ 10
O=C1CCC(Sc2ccc(F)cc2)CN1c1c(Cl)cncc1Cl (stereo unspecified)	≤ 10
O=C1CCC(Oc2ccc(Cl)cc2)CN1c1c(Cl)ccnc1Cl (stereo unspecified)	≤ 10
Cc1cc(C)cc(CC2CCC(=O)N(C3C(Cl)CCCC3Cl)C2)c1 (stereo unspecified)	≤ 10
O=C1SCC(Cc2cccc3ccccc23)CN1c1c(Cl)cccc1Cl (stereo unspecified)	≤ 10
Cc1cc(C(=O)NCCCN(C)C)cc(C)c1N1CC(Cc2ccc(F)cc2F)CCC1=O (stereo unspecified)	≤ 10
COc1ccccc1CC1COC(=O)N(c2c(Cl)cccc2Cl)C1 (stereo unspecified)	≤ 10
Cc1cc(C#CCCN2CCN(C)CC2)cc(C)c1N1CC(Cc2ccc(F)cc2F)CCC1=O (stereo unspecified)	≤ 10
O=C1SCC(Cc2cc(F)cc(F)c2)CN1c1c(Cl)cccc1Cl (stereo unspecified)	≤ 10
Cc1ccc(SC2CCC(=O)N(c3c(Cl)cccc3Cl)C2)c(C)c1 (stereo unspecified)	≤ 10
Cc1ccc(CC2CN(c3c(Cl)cccc3Cl)C(=O)CO2)cc1 (stereo unspecified)	≤ 10
COc1ccc(OC2CCC(=O)N(c3c(Cl)cncc3Cl)C2)cc1 (stereo unspecified)	≤ 10
O=C1CCC(Sc2ccccc2Cl)CN1C1C(Cl)CCCC1Cl (stereo unspecified)	≤ 10
Cc1cc(C(=O)N2CCN(C)CC2)cc(C)c1N1CC(Cc2ccc(F)cc2F)CCC1=O (stereo unspecified)	≤ 10
CN1CC(Cc2cccc3ccccc23)CN(c2c(Cl)cccc2Cl)C1=O (stereo unspecified)	≤ 10
O=C1CCC(Sc2ccc(F)cc2F)CN1c1c(Cl)cc(O)cc1Cl (stereo unspecified)	≤ 10
O=C1CCC(Cc2ccccc2F)CN1c1c(Cl)cccc1Cl (stereo unspecified)	≤ 10
O=C1COC(Cc2cc(Cl)cc(Cl)c2)CN1c1c(Cl)cccc1Cl (stereo unspecified)	≤ 10
O=C1CNC(Cc2ccc(F)cc2F)CN1c1c(Cl)cccc1Cl (stereo unspecified)	≤ 10
O=C1COC(Cc2ccccc2)CN1c1c(Cl)cccc1Cl (stereo unspecified)	≤ 10

Compound	IC50 [µM]
O=C1NCC(Cc2ccc(F)cc2F)CN1c1c(Cl)cc(O)cc1Cl (stereo unspecified)	≤ 10
O=C1OCC(Cc2ccc(Cl)cc2)CN1c1c(Cl)cccc1Cl (stereo unspecified)	≤ 10
CN1CC(Cc2cc(Cl)cc(Cl)c2)CN(c2c(Cl)cccc2Cl)C1=O (stereo unspecified)	≤ 10
CNc1sc(Cl)c(N2CC(Cc3ccc(F)cc3F)CCC2=O)c1Cl (stereo unspecified)	≤ 10
CNC1CC(Cl)C(N2CC(Sc3ccc(F)cc3F)CCC2=O)C(Cl)C1 (stereo unspecified)	≤ 10
CN1CC(Cc2ccc(F)cc2)CN(c2c(Cl)cccc2Cl)C1=O (stereo unspecified)	≤ 10
O=C1COC(Cc2cc(F)cc(F)c2)CN1c1c(Cl)cccc1Cl (stereo unspecified)	≤ 10
O=C1CCC(Sc2ccc3ccccc3c2)CN1c1c(Cl)csc1Cl (stereo unspecified)	≤ 10
NC1CC(Cl)C(N2CC(Oc3ccc(F)cc3F)CCC2=O)C(Cl)C1 (stereo unspecified)	≤ 10
CN(C)CCNc1cc(Cl)c(N2CC(Cc3ccc(F)cc3F)CCC2=O)c(Cl)c1 (stereo unspecified)	≤ 10
O=C1CCC(Sc2ccccc2)CN1C1C(Cl)CCCC1Cl (stereo unspecified)	≤ 10
Cc1cc(N)cc(C)c1N1CC(Cc2ccc(F)cc2F)CNC1=O (stereo unspecified)	≤ 10
O=C(O)CNc1cc(Cl)c(N2CC(Cc3ccc(F)cc3F)CCC2=O)c(Cl)c1 (stereo unspecified)	≤ 10
CNC(=O)c1cc(C)c(N2CC(Cc3ccc(F)cc3F)CCC2=O)c(C)c1 (stereo unspecified)	≤ 10
O=C1SCC(Cc2ccccc2F)CN1c1c(Cl)cccc1Cl (stereo unspecified)	≤ 10
O=C1CSC(Cc2cc(Cl)cc(Cl)c2)CN1c1c(Cl)cccc1Cl (stereo unspecified)	≤ 10
COc1ccccc1SC1CCC(=O)N(c2c(Cl)cncc2Cl)C1 (stereo unspecified)	≤ 10
O=C1CCC(Cc2cc(Cl)cc(Cl)c2)CN1c1c(Cl)ccnc1Cl (stereo unspecified)	≤ 10
COc1ccccc1OC1CCC(=O)N(C2C(Cl)CCCC2Cl)C1 (stereo unspecified)	≤ 10
O=C1OCCN1c1cc(Cl)c(N2CC(Cc3ccc(F)cc3F)CCC2=O)c(Cl)c1 (stereo unspecified)	≤ 10
O=C1COC(Cc2ccc(F)cc2)CN1c1c(Cl)cccc1Cl (stereo unspecified)	≤ 10
O=C1OCC(Cc2ccc(F)cc2)CN1c1c(Cl)cccc1Cl (stereo unspecified)	≤ 10
Cc1cc(/C=C/CCN(C)C)cc(C)c1N1CC(Cc2ccc(F)cc2F)CCC1=O (stereo unspecified)	≤ 10

Compound	IC50 [µM]
CC(=O)NCCNc1cc(Cl)c(N2CC(Cc3ccc(F)cc3F)CCC2=O)c(Cl)c1 (stereo unspecified)	≤ 10
O=C1NCC(Cc2ccc(F)cc2F)CN1c1c(Cl)ccc(CO)c1Cl (stereo unspecified)	≤ 10
O=C1COC(Cc2ccc(F)cc2F)CN1c1c(Cl)ccc(O)c1Cl (stereo unspecified)	≤ 10
O=C1CCC(Cc2ccc(F)cc2F)(Cc2ccc(F)cc2F)CN1c1c(Cl)cccc1Cl	≤ 10
O=C1CCC(Cc2ccc(Cl)cc2Cl)CN1C1C(Cl)CCCC1Cl (stereo unspecified)	≤ 10
Cc1cc(CCCCC=O)cc(C)c1N1CC(Cc2ccc(F)cc2F)CCC1=O (stereo unspecified)	≤ 10
O=C1CCC(Sc2cccc3ccccc23)CN1c1c(Cl)cncc1Cl (stereo unspecified)	≤ 10
O=C1CCC(Sc2cc(Cl)cc(Cl)c2)CN1c1c(Cl)cncc1Cl (stereo unspecified)	≤ 10
O=C1CCC(Oc2ccc(F)cc2)CN1c1c(Cl)cncc1Cl (stereo unspecified)	≤ 10
O=C1CCC(Sc2ccc(F)cc2F)CN1c1c(Cl)cnc(O)c1Cl (stereo unspecified)	≤ 10
O=C(Cc1ccccc1)Nc1cc(Cl)c(N2CC(Cc3ccc(F)cc3F)CCC2=O)c(Cl)n1 (stereo unspecified)	≤ 10
Cc1cc(C)cc(SC2CCC(=O)N(c3c(Cl)cncc3Cl)C2)c1 (stereo unspecified)	≤ 10
Cc1cc2c(cc1NC(=O)NCc1ccccc1CC1CCC(=O)N(c3c(Cl)cccc3Cl)C1)C(C)(C)CCC2 (stereo unspecified)	≤ 10
COc1ccc(SC2CCC(=O)N(c3c(Cl)ccnc3Cl)C2)cc1 (stereo unspecified)	≤ 10
O=C1OCC(Cc2ccc(F)cc2F)CN1c1c(Cl)cc(CO)cc1Cl (stereo unspecified)	≤ 10
CNc1ccc(Cl)c(N2CC(Sc3ccc(F)cc3F)CCC2=O)c1Cl (stereo unspecified)	≤ 10
CC(C)(C)OC(=O)N(CC(N)=O)c1cc(Cl)c(N2CC(Cc3ccc(F)cc3F)CCC2=O)c(Cl)c1 (stereo unspecified)	≤ 10
O=C1CCC(Cc2ccc(F)cc2F)CN1c1c(Cl)cc(COC(c2ccccc2)(c2ccccc2)c2ccccc2)cc1Cl (stereo unspecified)	≤ 10
O=C(O)/C=C/c1ccccc1CC1CCC(=O)N(c2c(Cl)cccc2Cl)C1 (stereo unspecified)	≤ 10
